Literature values, collected in EP3466413A1, “PHARMACEUTICAL COMPOSITION CONTAINING AGOMELATINE AND PROCESS FOR THE PREPARATION THEREOF” (KRKA, d.d., Novo mesto, priority 2017, dated 2019).
≈ marks a conversion by molar mass, not a printed value. Like-named read-outs stand apart in the source and are kept apart here.

Key:
[1] = second (proton) dissociation step, aqueous solution
[2] = crystalline powder

For `O=C(O)C(=O)O` [oxalic acid], the pKa2 [1] is listed as 4.19.
For `COc1ccc2cccc(CCNC(C)=O)c2c1` [Agomelatine, N[2-(7-methoxy-1-naphthyl)ethyl] acetamide], the “solubility in aqueous buffers” value (aqueous buffers) is listed as “very slightly soluble”, the “solubility in aqueous solution” value (aqueous solution over the physiological pH range) is listed as “very slightly soluble” and the solubility (dichloromethane) is listed as about 80 mg/mL (≈ 329 mM). For the same compound, the solubility (methanol) was “approximately 500 mg/ml”, the “solubility in organic solvents” value (organic solvents such as methanol and dichloromethane) was “freely soluble” and the solubility in water (water) was “practically insoluble”. The hygroscopicity [2] was “non-hygroscopic”.
